This is an account of results in patent US9233092B2, “Compositions and methods for inhibiting gastric acid secretion using derivatives of small dicarboxylic acids in combination with PPI” (Vecta, Ltd., priority 2006, dated 2016).

“Also recorded” adds a separate entry of the source.

In one experiment the test system is gastric acid output. The note with it: humans; Teyssen et al., J. Clin Invest. 1999; cited from earlier work.
Experiment [1] concerns gastric acid secretion. The experiment is described as follows: Stimulation of gastric acid secretion after oral administration, pylorus ligated 60 min after dosing, acid output by NaOH titration. Format: in vivo. The note with it: rats, per os, SA 14.88 mg/kg, mS 16.65 mg/kg, dmS 17.65 mg/kg, gastric juice collected 30 min later. Here is the method:
Rats were administered (per os) with succinic acid (SA, 14.88 mg/kg), monomethylester of succinic acid (mS, 16.65 mg/kg) or dimethyl ester of succinic acid (dmS, 17.65 mg/kg) using gavage. 60 minutes later the rats were anesthetized with ketamine/domitor and the pylorus was ligated. Following additional 30 min, gastric juice was collected from the gastric lumen. Acid output was determined by titration with NaOH. Total acid output expressed in mEq HCl was calculated by multiplying the sample volume by the acid concentration. Results are expressed as means±SEM of 8 animals from each experimental group.

The subject of experiment [2] is gastric acid secretion. Nature of the experiment: Conscious pylorus-ligated rats: effect of succinates on the activity of pantoprazole on gastric acid secretion. Format: in vivo. The settings on record: oral gavage, succinate (SA 14.88 mg/kg or dmS 17.65 mg/kg) given 30 min prior to pantoprazole, FIG. 2. Here is the method:
To further study the delayed or sustained enhancement effect of dimethyl ester of succinic acid on the activity of pantoprazole, an experimental model of conscious pylorus-ligated rats was used. This experimental model permits the analysis of the effect of drugs on gastric acid secretion in conscious animals and avoids the effect of anesthesia on gastric acid secretion. Pantoprazole alone ([…]) or in combination with succinic acid (SA, 14.88 mg/kg) or dimethyl ester of succinic acid (dmS, 17.65 mg/kg) were administered by oral gavage. The succinates were administered 30 min prior to the administration of pantoprazole in order to test the sustained or delayed effect of dimethyl ester of succinic acid compared to the non-derivatized succinic acid. 120 min post succinates administration, the animals were anesthetized using anesthetic gas machine for a short period (5 minutes) that is sufficient to perform the pylorus ligation procedure and to close the abdomen. The animals were then placed back into its cage for additional 110 min after which the animals were sacrificed. The ligature was placed around the esophagus, the stomach removed and gastric content was collected. Following centrifugation, the gastric output and the pH of the gastric juice samples was determined. Data is presented as mean±SEM of gastric output. The number of animals is 6-7 in each experimental group.

`O=C(O)/C=C\C(=O)O` [Maleic acid]: the “stimulation of gastric acid output” value in the experiment on gastric acid output is reported as “powerful stimulants of gastric acid output”.

As for `O=C(O)CCC(=O)O` [SA, succinic acid, reference compound], the “gastric acid output (total acid output)” value in the experiment on gastric acid secretion [1] (FIG. 1) is “did not show an effect”. Moreover, the “enhancement of the effect of pantoprazole (PPI) on gastric acid output” value in the experiment on gastric acid secretion [2] is given as “only dimethyl ester of succinic acid was capable of enhancing the effect of PPI”. Also, in the experiment on gastric acid output, the “stimulation of gastric acid output” value is recorded as “powerful stimulants of gastric acid output”.

As to `COC(=O)CCC(=O)OC` [dmS, dimethyl ester of succinic acid], the “gastric acid output (total acid output)” value in the experiment with gastric acid secretion [1] (FIG. 1) is “effective in enhancing gastric output”; in the experiment on gastric acid secretion [1] (FIG. 1, listed as succinic acid dimethyl ester), “capable of enhancing gastric acid output even after 60 minutes from dosing”. In addition, in the experiment on gastric acid secretion [2], the “enhancement of the effect of pantoprazole (PPI) on gastric acid output” value is listed as “capable of enhancing the activity of pantoprazole on gastric acid secretion; also recorded: capable of enhancing the effect of PPI on gastric acid output”.

With `COC(=O)CCC(=O)O` [mS, monomethylester of succinic acid], the “gastric acid output (total acid output)” value in the experiment with gastric acid secretion [1] (FIG. 1) was “effective in enhancing gastric output”.
